Laboratory results taken from PubChem BioAssay AID248 (DTP/NCI, 2004).
Values joined by “and” are separate entries in the source; they are usually repeats but may differ in a detail not shown here. Equal entries are not always repeated. Inconclusive results and toxic doses are left out. Rule as the data show it: active = T/C of 150% or more; inactive = T/C below 125%.

System: L1210 leukemia ip in BDF1 mice, survival T/C
Assay: NCI In Vivo Anticancer Drug Screen. Data for tumor model L1210 Leukemia (intraperitoneal) in B6D2F1 (BDF1) mice
Details: endpoint: mean survival time, higher = longer survival
Summary of the method: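 Tumor was transplanted into mice, which were then dosed with test compound or vehicle alone. Survival was recorded for each group, and the treated figure was expressed relative to the control figure.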

[1] = dose: 100.0 mg/kg/injection, schedule: Q04DX003 (ip), vehicle: Klucel (hydroxypropylcellulose) (HPC)
[2] = dose: 200.0 mg/kg/injection, schedule: Q04DX003 (ip), vehicle: Klucel (hydroxypropylcellulose) (HPC)
[3] = dose: 400.0 mg/kg/injection, schedule: Q04DX003 (ip), vehicle: Klucel (hydroxypropylcellulose) (HPC)
[4] = dose: 100.0 mg/kg/injection, schedule: Q01DX009 (ip), vehicle: saline with Tween-80
[5] = dose: 200.0 mg/kg/injection, schedule: Q01DX009 (ip), vehicle: saline with Tween-80
[6] = dose: 400.0 mg/kg/injection, schedule: Q01DX009 (ip), vehicle: saline with Tween-80
[7] = dose: 50.0 mg/kg/injection, schedule: Q04DX003 (ip), vehicle: saline
[8] = dose: 100.0 mg/kg/injection, schedule: Q01DX001 (ip), vehicle: saline
[9] = dose: 100.0 mg/kg/injection, schedule: Q04DX003 (ip), vehicle: saline
[10] = dose: 200.0 mg/kg/injection, schedule: Q01DX001 (ip), vehicle: saline
[11] = dose: 200.0 mg/kg/injection, schedule: Q04DX003 (ip), vehicle: saline
[12] = dose: 400.0 mg/kg/injection, schedule: Q01DX001 (ip), vehicle: saline
[13] = dose: 100.0 mg/kg/injection, schedule: Q04DX003 (ip), vehicle: saline with Tween-80
[14] = dose: 200.0 mg/kg/injection, schedule: Q04DX003 (ip), vehicle: saline with Tween-80
[15] = dose: 100.0 mg/kg/injection, schedule: Q01DX001 (ip), vehicle: carboxymethylcellulose (CMC)
[16] = dose: 100.0 mg/kg/injection, schedule: Q01DX009 (ip), vehicle: Klucel (hydroxypropylcellulose) (HPC)
[17] = dose: 100.0 mg/kg/injection, schedule: Q04DX003 (ip), vehicle: acetone
[18] = dose: 200.0 mg/kg/injection, schedule: Q01DX009 (ip), vehicle: Klucel (hydroxypropylcellulose) (HPC)
[19] = dose: 200.0 mg/kg/injection, schedule: Q04DX003 (ip), vehicle: acetone
[20] = dose: 100.0 mg/kg/injection, schedule: Q04DX002 (ip), vehicle: Klucel (hydroxypropylcellulose) (HPC)
[21] = dose: 200.0 mg/kg/injection, schedule: Q04DX002 (ip), vehicle: Klucel (hydroxypropylcellulose) (HPC)
[22] = dose: 400.0 mg/kg/injection, schedule: Q04DX002 (ip), vehicle: Klucel (hydroxypropylcellulose) (HPC)
[23] = dose: 100.0 mg/kg/injection, schedule: Q01DX009 (ip), vehicle: saline

Measured: T/C

COc1ccc(NC(C)=O)cc1S(=O)(=O)F
inactive: dose: 100.0 mg/kg/injection, schedule: Q01DX001 (ip), vehicle: Klucel (hydroxypropylcellulose) (HPC) 93 % of control | [1] 102 % of control | dose: 200.0 mg/kg/injection, schedule: Q01DX001 (ip), vehicle: Klucel (hydroxypropylcellulose) (HPC) 88 % of control | [2] 104 % of control | dose: 400.0 mg/kg/injection, schedule: Q01DX001 (ip), vehicle: Klucel (hydroxypropylcellulose) (HPC) 93 % of control | [3] 96 % of control

O=C(Nc1cccc(F)c1)Nc1cc(C(F)(F)F)ccc1Cl
inactive: dose: 50.0 mg/kg/injection, schedule: Q01DX009 (ip), vehicle: saline with Tween-80 96 % of control | [4] 95 % of control and 97 % of control | [5] 96 % of control | [6] 88 % of control

CCc1cccc(CC)c1NC(=O)Nc1ccc(Br)cc1
inactive: [7] 87 % of control | [8] 86 % of control | [9] 87 % of control | [10] 89 % of control | [11] 92 % of control

O=C(NC(Cc1ccccc1)C(=O)NCCCCCCCCCCNC(=O)C(Cc1ccccc1)NC(=O)OCc1ccccc1)OCc1ccccc1 (stereo not given)
inactive: dose: 50.0 mg/kg/injection, schedule: Q01DX001 (ip), vehicle: saline 92 % of control | [8] 98 % of control | [10] 110 % of control | [12] 104 % of control

Cn1[nH]nnc1=S
inactive: [13] 97 % of control | [14] 112 % of control

CC(C)(C)C(=O)CC(O)(C(F)(F)Cl)C(F)(F)Cl
inactive: [13] 107 % of control | [14] 91 % of control

O=[N+]([O-])c1cc(Br)cc2c1nc(NCCCO)c1ccccc12
inactive: [1] 103 % of control | [2] 109 % of control | [3] 109 % of control

Cc1ccccc1SCN(CSc1ccccc1C)C(C)(C)CC(C)(C)C
inactive: [15] 101 % of control

Clc1cccc(N2CCN(c3c4c(nc5ccccc35)CCCCC4)CC2)c1
inactive: [8] 93 % of control | [10] 88 % of control | [12] 90 % of control

Cc1cc(Cl)c(Cl)cc1NC(=O)Nc1cccc(F)c1
inactive: [4] 94 % of control | [5] 100 % of control | [6] 94 % of control

CCCc1nc2c(OC)ccc(OC)c2nc1C
inactive: dose: 12.5 mg/kg/injection, schedule: Q01DX009 (ip), vehicle: Klucel (hydroxypropylcellulose) (HPC) 98 % of control | dose: 25.0 mg/kg/injection, schedule: Q01DX009 (ip), vehicle: Klucel (hydroxypropylcellulose) (HPC) 97 % of control | dose: 50.0 mg/kg/injection, schedule: Q01DX009 (ip), vehicle: Klucel (hydroxypropylcellulose) (HPC) 92 % of control | [16] 94 % of control | [17] 97 % of control | [18] 86 % of control | [19] 97 % of control | dose: 400.0 mg/kg/injection, schedule: Q04DX003 (ip), vehicle: acetone 98 % of control

CC(=O)Nc1cccc(Cl)c1F
inactive: [20] 100 % of control | [21] 93 % of control | [22] 107 % of control

O=C1OC(=O)C2C3C=CC(C12)C1C3C1N1C(=O)CCC1=O (stereo not given)
inactive: dose: 50.0 mg/kg/injection, schedule: Q04DX003 (ip), vehicle: acetone 96 % of control | [17] 88 % of control | [19] 95 % of control

O=c1[nH]nc(SCc2ccccc2)c(=O)[nH]1
inactive: [8] 108 % of control | [10] 92 % of control | [12] 109 % of control

COc1ccc(C(=O)C(C)C(C)OC(=O)c2ccccc2C(=O)O)cc1 (stereo not given)
inactive: [8] 96 % of control | [10] 98 % of control | [12] 93 % of control

O=C(O)CCNCCO
inactive: [23] 98 % of control | dose: 200.0 mg/kg/injection, schedule: Q01DX009 (ip), vehicle: saline 98 % of control

Cc1csc2nc(-c3ccccc3)[nH]c(=O)c12
inactive: dose: 75.0 mg/kg/injection, schedule: Q01DX001 (ip), vehicle: saline sonified 86 % of control | dose: 150.0 mg/kg/injection, schedule: Q01DX001 (ip), vehicle: saline sonified 101 % of control | dose: 300.0 mg/kg/injection, schedule: Q01DX001 (ip), vehicle: saline sonified 107 % of control

CC(C)OC(=O)Nc1ccccc1
inactive: [16] 93 % of control | [20] 102 % of control | [18] 93 % of control | [21] 112 % of control | dose: 400.0 mg/kg/injection, schedule: Q01DX009 (ip), vehicle: Klucel (hydroxypropylcellulose) (HPC) 110 % of control | [22] 115 % of control

CSc1nn(C)c[n+]1-c1ccccc1
inactive: [8] 105 % of control

O=C1c2ccccc2C(=O)N1N1C(=O)C2C3CCC(O3)C2C1=O (stereo not given)
inactive: dose: 100.0 mg/kg/injection, schedule: Q01DX001 (ip), vehicle: saline with Tween-80 97 % of control and 91 % of control | dose: 100.0 mg/kg/injection, schedule: Q04DX002 (ip), vehicle: saline with Tween-80 101 % of control and 106 % of control | [13] 93 % of control and 95 % of control | dose: 200.0 mg/kg/injection, schedule: Q01DX001 (ip), vehicle: saline with Tween-80 94 % of control and 90 % of control | dose: 200.0 mg/kg/injection, schedule: Q04DX002 (ip), vehicle: saline with Tween-80 105 % of control | [14] 95 % of control and 100 % of control | dose: 400.0 mg/kg/injection, schedule: Q01DX001 (ip), vehicle: saline with Tween-80 96 % of control and 97 % of control | dose: 400.0 mg/kg/injection, schedule: Q04DX002 (ip), vehicle: saline with Tween-80 94 % of control and 101 % of control | dose: 400.0 mg/kg/injection, schedule: Q04DX003 (ip), vehicle: saline with Tween-80 95 % of control and 100 % of control

CCOc1ccc(/C=N\NC(=O)c2ccco2)cc1OCC
inactive: [15] 93 % of control | dose: 200.0 mg/kg/injection, schedule: Q01DX001 (ip), vehicle: carboxymethylcellulose (CMC) 95 % of control | dose: 400.0 mg/kg/injection, schedule: Q01DX001 (ip), vehicle: carboxymethylcellulose (CMC) 97 % of control

O=c1cc(CSCCO)[nH]c(=O)[nH]1
inactive: [9] 102 % of control | [11] 96 % of control | dose: 400.0 mg/kg/injection, schedule: Q04DX003 (ip), vehicle: saline 104 % of control

CCN(CC)CCOC(=O)c1ccc(N)cc1
inactive: dose: 12.5 mg/kg/injection, schedule: Q01DX009 (ip), vehicle: saline 97 % of control | dose: 25.0 mg/kg/injection, schedule: Q01DX009 (ip), vehicle: saline 103 % of control | dose: 25.0 mg/kg/injection, schedule: Q04DX003 (ip), vehicle: saline 101 % of control | dose: 50.0 mg/kg/injection, schedule: Q01DX009 (ip), vehicle: saline 100 % of control and 95 % of control | [7] 111 % of control | [23] 100 % of control and 101 % of control | [9] 101 % of control

O=C1c2[nH]c3ccccc3c2CC2CC12 (stereo not given)
inactive: dose: 75.0 mg/kg/injection, schedule: Q01DX001 (ip), vehicle: saline 96 % of control | dose: 150.0 mg/kg/injection, schedule: Q01DX001 (ip), vehicle: saline 104 % of control | dose: 300.0 mg/kg/injection, schedule: Q01DX001 (ip), vehicle: saline 101 % of control
